# Results reported in ChEMBL document CHEMBL1131809, “1-[(Benzofuran-2-yl)phenylmethyl]-triazoles and -tetrazoles - potent competitive inhibitors of aromatase” (Bioorg Med Chem Lett, 1999).
# Target: T1, Aromatase (Homo sapiens, UniProt P11511)
# T1 sequence (P11511 whole entry): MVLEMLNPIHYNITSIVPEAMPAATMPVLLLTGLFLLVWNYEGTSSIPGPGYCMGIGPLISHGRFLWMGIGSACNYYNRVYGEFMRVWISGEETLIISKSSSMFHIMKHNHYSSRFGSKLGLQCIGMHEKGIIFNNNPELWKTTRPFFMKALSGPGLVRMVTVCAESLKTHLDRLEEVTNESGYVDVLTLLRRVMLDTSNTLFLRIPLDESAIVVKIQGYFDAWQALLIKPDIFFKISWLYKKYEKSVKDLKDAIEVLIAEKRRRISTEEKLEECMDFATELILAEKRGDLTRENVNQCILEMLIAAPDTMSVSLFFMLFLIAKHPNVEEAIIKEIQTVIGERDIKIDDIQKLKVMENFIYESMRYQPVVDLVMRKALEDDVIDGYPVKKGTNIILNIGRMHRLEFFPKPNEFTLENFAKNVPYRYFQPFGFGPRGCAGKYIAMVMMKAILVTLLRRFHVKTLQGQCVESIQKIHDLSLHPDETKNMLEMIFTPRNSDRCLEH
# Description: Inhibition of human placental aromatase, cytochrome P450 19A1 at 20 uM
smiles,measurement,value
Cc1ccc(C(c2cc3ccccc3o2)n2cnnn2)cc1 (stereo not drawn),inhibition at 20 µM,67.2%
O=[N+]([O-])c1ccc2oc(C(c3ccccc3)n3cnnn3)cc2c1 (stereo not drawn),inhibition at 20 µM,14.4%
c1ccc(C(c2cc3ccccc3o2)n2cncn2)cc1 (stereo not drawn),inhibition at 20 µM,85.7%
